Results from patent US20240270821A1, “GIP/GLP1/GCG TRI-RECEPTOR AGONISTS AND USES THEREOF” (priority 2023, published 2024).
Read-outs that look alike come from different tables or passages of the source. Starred links: 1 amine or outer side, 2 acyl side, 3 side chain; linkers in the order of their positions; H or OH if unused. Non-standard residues stand in square brackets, D forms with d. Groups on a side chain read outwards from the residue. No end group written: not given here. *: point of attachment. C18 diacid = O=C(O)CCCCCCCCCCCCCCCCC(=O)*; αMePhe(2-F) = C[C@](N)(Cc1ccccc1F)C(=O)O; γGlu = O=C(O)[C@H](CCC(=O)[*:2])N[*:1]; NMeY = CN[C@@H](Cc1ccc(O)cc1)C(=O)O; αMe4Pal = C[C@](N)(Cc1ccncc1)C(=O)O; αMeY = C[C@](N)(Cc1ccc(O)cc1)C(=O)O; 4Pal = N[C@@H](Cc1ccncc1)C(=O)O; αMeL = CC(C)C[C@](C)(N)C(=O)O; αMeS = C[C@](N)(CO)C(=O)O; Orn = NCCC[C@H](N)C(=O)O; AEEA = NCCOCCOCC(=O)O; Aib = CC(C)(N)C(=O)O

Key:
Type in all cases: cell-based
human GcgR = human GcgR (Homo sapiens, UniProt P47871); assay: Functional cAMP activity in the presence of 1% HSA; details: read-out: cAMP Rel EC50, hGcgR
hGLP-1R [1] = target: T1, hGLP-1R (Homo sapiens, UniProt P43220); assay: Functional cAMP activity in the presence of 1% HSA; details: read-out: cAMP Rel EC50, hGLP-1R
hGIPR [2] = target: T2, hGIPR (Homo sapiens, UniProt P48546); assay: Functional cAMP activity in the presence of 1% HSA; details: read-out: cAMP Rel EC50, hGIPR
T2 sequence (P48546 22-466): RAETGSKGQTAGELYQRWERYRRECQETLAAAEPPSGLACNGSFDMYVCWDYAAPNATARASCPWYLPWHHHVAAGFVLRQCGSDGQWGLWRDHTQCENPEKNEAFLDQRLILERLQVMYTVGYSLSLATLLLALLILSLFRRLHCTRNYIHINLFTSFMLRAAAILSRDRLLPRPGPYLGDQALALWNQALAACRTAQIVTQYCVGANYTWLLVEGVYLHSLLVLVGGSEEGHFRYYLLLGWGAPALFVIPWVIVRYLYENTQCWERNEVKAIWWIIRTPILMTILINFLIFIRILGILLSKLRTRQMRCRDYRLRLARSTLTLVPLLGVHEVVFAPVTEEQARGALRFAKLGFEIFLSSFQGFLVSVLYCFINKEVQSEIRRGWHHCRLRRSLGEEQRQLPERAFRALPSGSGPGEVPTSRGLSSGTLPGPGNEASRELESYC

hGcgR = hGcgR (Homo sapiens, UniProt P47871); assay: Functional cAMP activation in the presence of 0.1% casein (no HSA); details: read-out: Relative cAMP EC50, hGcgR;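 further: intracellular cAMP rise after 30 min at 37 °C, read by HTRF against a cAMP standard curve, scaled from buffer only (0%) to maximal control ligand response (100%)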
hGIPR [3] = target: T2, hGIPR; assay: as above; details: read-out: Relative cAMP EC50, hGIPR
hGLP-1R [4] = target: T1, hGLP-1R; assay: as above; details: read-out: Relative cAMP EC50, hGLP-1R
[5] = in the presence of 0.1% casein (no HSA), geometric mean
[6] = 0.1% casein, no HSA, geometric mean
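Wherever Relative cAMP EC50, hGIPR is given: intracellular cAMP rise after 30 min at 37 °C read by HTRF against a standard curve, scaled between buffer alone (0%) and top control ligand concentration (100%), four-parameter fit.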
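Wherever Relative cAMP EC50, hGLP-1R is given: intracellular cAMP rise after 30 min at 37 °C read by HTRF, normalized between buffer only (0%) and maximal control ligand (100%), four-parameter variable-slope fit.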

T1 sequence (P43220 24-463): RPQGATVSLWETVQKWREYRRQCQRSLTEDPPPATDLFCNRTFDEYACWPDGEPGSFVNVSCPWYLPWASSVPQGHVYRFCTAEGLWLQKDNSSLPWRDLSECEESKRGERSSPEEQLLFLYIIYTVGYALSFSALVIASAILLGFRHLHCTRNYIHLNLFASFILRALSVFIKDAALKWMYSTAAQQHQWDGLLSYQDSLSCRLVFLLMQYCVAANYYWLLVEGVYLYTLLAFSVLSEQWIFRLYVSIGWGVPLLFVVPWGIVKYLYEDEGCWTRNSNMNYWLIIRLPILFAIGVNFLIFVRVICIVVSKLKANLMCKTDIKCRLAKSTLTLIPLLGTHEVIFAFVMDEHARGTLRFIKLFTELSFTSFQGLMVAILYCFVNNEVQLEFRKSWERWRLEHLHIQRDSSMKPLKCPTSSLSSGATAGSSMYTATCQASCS
Sequence of human GcgR (P47871 26-477): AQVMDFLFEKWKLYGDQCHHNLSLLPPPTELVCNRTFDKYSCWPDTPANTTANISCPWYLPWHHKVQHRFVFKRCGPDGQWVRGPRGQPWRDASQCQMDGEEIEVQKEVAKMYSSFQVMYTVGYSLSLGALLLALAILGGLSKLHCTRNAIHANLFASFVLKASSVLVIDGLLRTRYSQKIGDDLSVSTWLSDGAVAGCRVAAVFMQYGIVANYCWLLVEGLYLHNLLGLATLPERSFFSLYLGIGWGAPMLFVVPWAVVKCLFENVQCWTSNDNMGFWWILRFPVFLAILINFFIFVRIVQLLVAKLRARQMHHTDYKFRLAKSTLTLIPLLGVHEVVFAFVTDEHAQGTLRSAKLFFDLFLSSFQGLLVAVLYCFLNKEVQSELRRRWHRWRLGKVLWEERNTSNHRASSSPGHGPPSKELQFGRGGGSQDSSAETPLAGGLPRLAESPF
Sequence of hGcgR (P47871 26-477): as above

Row | Substance | EC50 (human GcgR) [nM] | EC50 (hGLP-1R [1]) [nM] | EC50 (hGIPR [2]) [nM] | EC50 (hGcgR) [nM] | EC50 (hGIPR [3]) [nM] | EC50 (hGLP-1R [4]) [nM] | EC50 (hGcgR; [5]) [nM] | EC50 (hGIPR [3]; [5]) [nM] | EC50 (hGLP-1R [4]; [5]) [nM] | EC50 (hGcgR; [6]) [nM] | EC50 (hGIPR [3]; [6]) [nM] | EC50 (hGLP-1R [4]; [6]) [nM]
1 | Y[Aib]QGT[αMePhe(2-F)]TSD[4Pal][αMeS]I[αMeL]LD[Orn]K([AEEA-γGlu-C18 diacid])AQ[αMe4Pal]EFI[dE][αMeY]LVEGGPSSGAPPPSGGGE-NH2 [Example 769] | 269 | 34 | 1.02 | 1.33 | 0.00852 | 0.247 | – | – | – | – | – | –
2 | Y[Aib]QGTFTSDFSK[αMeL]LDKK([AEEA-γGlu-C18 diacid])AQ[Aib]AFIEYLIE[Aib]GPSSGAPPPSGS-NH2 [Example 797] | 963 | 102 | 16.7 | – | – | – | 3.78 | 0.0781 | 0.449 | – | – | –
3 | H-Y[Aib]QGT[αMePhe(2-F)]TSD[4Pal][αMeS]I[αMeL]LD[Orn][Orn]([AEEA-γGlu-C18 diacid])AQ[αMe4Pal]EFI[dE][αMeY]LIEGGPSSGAPPPSGGGE-NH2 [Example 1213] | 268 | 44 | 0.616 | – | – | – | – | – | – | 1.69 | 0.00721 | 0.423
4 | H-Y[Aib]QGT[αMePhe(2-F)]TSD[4Pal]SILLDKK([γGlu-γGlu-C18 diacid])AQ[Aib]AFIEYLEEGGPSSGAPPPSGTE-NH2 [Example 509] | 617 | 69.2 | 5.01 | 4.66 | 0.0557 | 0.65 | – | – | – | – | – | –
5 | Y[Aib]QGT[αMePhe(2-F)]TSD[4Pal][αMeS]I[αMeL]LD[Orn]K([AEEA-γGlu-C18 diacid])AQ[αMe4Pal]EFI[dE][αMeY]LVEGGPSSGEPPPSGGGE-NH2 [Example 735] | 236 | 40.7 | 1.32 | 1.97 | 0.012 | 0.386 | – | – | – | – | – | –
6 | H-Y[Aib]QGTFTSD[4Pal]S[Orn][αMeL]LDKK([AEEA-γGlu-C18 diacid])AQ[Aib]AFIEYLLE[dA]GPSS[Aib]APPPSGT-NH2 [Example 275] | 882 | 692 | 27.7 | – | – | – | 7.8 | 0.318 | 4.93 | – | – | –
7 | H-Y[Aib]QGT[αMePhe(2-F)]TSD[4Pal][αMeS]I[αMeL]LD[Orn]K([AEEA-γGlu-γGlu-C18 diacid])AQ[αMe4Pal]EFI[dE][αMeY]LIEGGPSSGAPPPSGSE-NH2 [Example 1178] | 270 | 39 | 0.544 | – | – | – | 3.08 | 0.00913 | 0.437 | – | – | –
8 | H-Y[Aib]QGTFTSD[4Pal]S[Orn][αMeL]LDKK([γGlu-γGlu-C18 diacid])AQ[αMe4Pal]AFIEYLIAGGPSSGEPPPSGTEE-NH2 [Example 981] | 477 | 330 | 21.1 | – | – | – | 3.7 | 0.243 | 4.45 | – | – | –
9 | H-Y[Aib]QGTFTSD[4Pal]SQ[αMeL]LDKK([AEEA-γGlu-C18 diacid])AQ[Aib]AFIE[αMeY]LIEGGPSSGAPPPEGS-NH2 [Example 853] | 4500 | 102 | 32.4 | – | – | – | 26.5 | 0.224 | 0.507 | – | – | –
10 | H-Y[Aib]QGTFTSDFS[Orn][αMeL]LDKK([AEEA-γGlu-C18 diacid])AQ[αMe4Pal]DFIEYLIE[Aib]GPSSGAPPPSGS-NH2 [Example 880] | 562 | 943 | 76.2 | – | – | – | 3.53 | 0.116 | 7.69 | – | – | –
11 | [NMeY][Aib]QGTFTSD[4Pal][αMeS]I[αMeL]LD[Orn]K([dE-γGlu-C18 diacid])AQ[αMe4Pal]QFIQ[αMeY]LIE[Aib]GPSSGAPPPSGGGE-NH2 [Example 1135] | 142 | 63.2 | 0.864 | – | – | – | 1.76 | 0.0126 | 0.746 | – | – | –
